Data as given in the RepoRT retention time repository.
Counter-ions that a name gives are not always drawn.

Test: RP, Waters ACQUITY UPLC HSS T3, 150 × 2.1 mm, 1.8 µm, 45 °C, 0.6 mL/min, estimated dead time 0.55 min; A: water + 0.1% formic acid, pH 3; B: acetonitrile + 0.1% formic acid, pH 3; gradient (min/%B) 0/1 0.1/1 10/55 10.15/65 10.30/75 10.45/85 10.60/95 10.70/100 11/100 11.55/100 11.65/1 11.70/1 11.80/1 11.90/1 12/1 12.10/1 12.15/1 12.65/1
Conditions: stereoisomer not certain

Compound	LC retention time
CC(C)(O)C(=O)O [2-Hydroxyisobutyric acid]	1.62 min
CC(CC(=O)O)C1CCC2C3C(O)CC4CC(O)CCC4(C)C3CC(O)C12C (stereo not drawn) [23-Norcholic acid]	8.58 min
CC(CCC(=O)NCC(=O)O)C1CCC2C3CCC4CC(O)CCC4(C)C3CC(O)C12C (stereo not drawn) [Glycodeoxycholic acid]	10.1 min
CC(=O)NC(Cc1c[nH]c2ccccc12)C(=O)O (stereo not drawn) [N-Acetyltryptophan]	4.96 min
O=c1[nH]c(=O)c2[nH]cnc2[nH]1 [Xanthine]	1.31 min
O=C1NS(=O)(=O)c2ccccc21 [Saccharin]	2.7 min
CCC(C)C(NC(C)=O)C(=O)O (stereo not drawn) [N-Acetylisoleucine]	4.03 min
O=C(O)c1cc(O)cc(O)c1 [3,5-Dihydroxybenzoic acid]	2.35 min
NCCc1ccc(OS(=O)(=O)O)c(O)c1 [Dopamine 4-O-sulfate]	1.49 min
CCC(C)(O)C(=O)O (stereo not drawn) [2-Hydroxy-2-methylbutyric acid]	2.45 min
NC(Cc1ccccc1)C(=O)O (stereo not drawn) [Phenylalanine]	2.05 min
CC(CC(=O)O)C(=O)O (stereo not drawn) [Methylsuccinic acid]	2.19 min
CCC(C)C(=O)C(=O)O (stereo not drawn) [3-Methyl-2-oxovaleric acid]	3.22 min
O=C(O)CCCCCCC(=O)O [Suberic acid]	4.46 min
NC(Cc1ccc(O)cc1)C(=O)O (stereo not drawn) [Tyrosine]	1.38 min
O=C(O)C(O)Cc1ccccc1 (stereo not drawn) [Phenyllactic acid]	4.51 min
CC(CC(=O)O)CC(=O)O [3-Methylglutaric acid]	2.66 min
NC(CCCCn1c(C=O)ccc1CO)C(=O)O (stereo not drawn) [Pyrraline]	2.49 min
O=C(O)CC(O)(CC(=O)O)C(=O)O [Citric acid]	1.12 min
CC(CCC(=O)NCC(=O)O)C1CCC2C3C(O)CC4CC(O)CCC4(C)C3CC(O)C12C (stereo not drawn) [Glycocholic acid]	8.4 min
O=C(O)C(O)Cc1ccc(O)cc1 (stereo not drawn) [4-Hydroxyphenyllactic acid]	2.81 min
CC12CCC3C(CC=C4CC(OS(=O)(=O)O)CCC43C)C1CCC2=O (stereo not drawn) [Dehydroepiandrosterone sulfate]	7.92 min
CC(C)C(=O)NCC(=O)O [Isobutyrylglycine]	2.07 min
